Results taken from patent US20250197375A1, “PYRIMIDINES AND METHODS OF THEIR USE” (Kineta, Inc., priority 2021, published 2025).

What follows are compounds tested against PIKfyve (Homo sapiens (Human), UniProt Q9Y2I7) (assay: PIKfyve EEA1 Assay (endosomal vesicle enlargement, high content imaging in U2OS cells)). Settings: 3 hours of treatment, activity relative to maximal APY0201 activity.
Format: cell-based
Experimental: PIKfyve EEA1 Assay. Genetic or pharmacological disruption of PIKfyve activity results in enlargement of endosomal vesicles. This enlargement was utilized as a surrogate readout of PIKFyve inhibition for routine triage of PIKfyve inhibitors. U2OS cells grown in 96-well assay plates were treated with compound diluted in DMEM media containing 10% fetal bovine serum. After 3 hours of treatment, cells were fixed with paraformaldehyde, permeabilized with 0.2% Triton-X in phosphate buffered saline and stained against EEA1. During the secondary antibody staining, cells were also stained with CellMask™ Deep Red and Hoechst to detect cytoplasms and nuclei respectively. Endosomal structures were visualized using a high content imager at 40× magnification. Images were analyzed using a linear classifier algorithm integrating EEA1 spot size, intensity and texture trained on images of cells treated with the potent reference compound APY0201. Compound activity was calculated by subtracting the DMSO signal and calculating percentage activity relative to maximal APY0201 activity. IC50 values were then calculated from concentration versus percent inhibition data by logistic regression.

Chain of PIKfyve (Q9Y2I7 whole entry): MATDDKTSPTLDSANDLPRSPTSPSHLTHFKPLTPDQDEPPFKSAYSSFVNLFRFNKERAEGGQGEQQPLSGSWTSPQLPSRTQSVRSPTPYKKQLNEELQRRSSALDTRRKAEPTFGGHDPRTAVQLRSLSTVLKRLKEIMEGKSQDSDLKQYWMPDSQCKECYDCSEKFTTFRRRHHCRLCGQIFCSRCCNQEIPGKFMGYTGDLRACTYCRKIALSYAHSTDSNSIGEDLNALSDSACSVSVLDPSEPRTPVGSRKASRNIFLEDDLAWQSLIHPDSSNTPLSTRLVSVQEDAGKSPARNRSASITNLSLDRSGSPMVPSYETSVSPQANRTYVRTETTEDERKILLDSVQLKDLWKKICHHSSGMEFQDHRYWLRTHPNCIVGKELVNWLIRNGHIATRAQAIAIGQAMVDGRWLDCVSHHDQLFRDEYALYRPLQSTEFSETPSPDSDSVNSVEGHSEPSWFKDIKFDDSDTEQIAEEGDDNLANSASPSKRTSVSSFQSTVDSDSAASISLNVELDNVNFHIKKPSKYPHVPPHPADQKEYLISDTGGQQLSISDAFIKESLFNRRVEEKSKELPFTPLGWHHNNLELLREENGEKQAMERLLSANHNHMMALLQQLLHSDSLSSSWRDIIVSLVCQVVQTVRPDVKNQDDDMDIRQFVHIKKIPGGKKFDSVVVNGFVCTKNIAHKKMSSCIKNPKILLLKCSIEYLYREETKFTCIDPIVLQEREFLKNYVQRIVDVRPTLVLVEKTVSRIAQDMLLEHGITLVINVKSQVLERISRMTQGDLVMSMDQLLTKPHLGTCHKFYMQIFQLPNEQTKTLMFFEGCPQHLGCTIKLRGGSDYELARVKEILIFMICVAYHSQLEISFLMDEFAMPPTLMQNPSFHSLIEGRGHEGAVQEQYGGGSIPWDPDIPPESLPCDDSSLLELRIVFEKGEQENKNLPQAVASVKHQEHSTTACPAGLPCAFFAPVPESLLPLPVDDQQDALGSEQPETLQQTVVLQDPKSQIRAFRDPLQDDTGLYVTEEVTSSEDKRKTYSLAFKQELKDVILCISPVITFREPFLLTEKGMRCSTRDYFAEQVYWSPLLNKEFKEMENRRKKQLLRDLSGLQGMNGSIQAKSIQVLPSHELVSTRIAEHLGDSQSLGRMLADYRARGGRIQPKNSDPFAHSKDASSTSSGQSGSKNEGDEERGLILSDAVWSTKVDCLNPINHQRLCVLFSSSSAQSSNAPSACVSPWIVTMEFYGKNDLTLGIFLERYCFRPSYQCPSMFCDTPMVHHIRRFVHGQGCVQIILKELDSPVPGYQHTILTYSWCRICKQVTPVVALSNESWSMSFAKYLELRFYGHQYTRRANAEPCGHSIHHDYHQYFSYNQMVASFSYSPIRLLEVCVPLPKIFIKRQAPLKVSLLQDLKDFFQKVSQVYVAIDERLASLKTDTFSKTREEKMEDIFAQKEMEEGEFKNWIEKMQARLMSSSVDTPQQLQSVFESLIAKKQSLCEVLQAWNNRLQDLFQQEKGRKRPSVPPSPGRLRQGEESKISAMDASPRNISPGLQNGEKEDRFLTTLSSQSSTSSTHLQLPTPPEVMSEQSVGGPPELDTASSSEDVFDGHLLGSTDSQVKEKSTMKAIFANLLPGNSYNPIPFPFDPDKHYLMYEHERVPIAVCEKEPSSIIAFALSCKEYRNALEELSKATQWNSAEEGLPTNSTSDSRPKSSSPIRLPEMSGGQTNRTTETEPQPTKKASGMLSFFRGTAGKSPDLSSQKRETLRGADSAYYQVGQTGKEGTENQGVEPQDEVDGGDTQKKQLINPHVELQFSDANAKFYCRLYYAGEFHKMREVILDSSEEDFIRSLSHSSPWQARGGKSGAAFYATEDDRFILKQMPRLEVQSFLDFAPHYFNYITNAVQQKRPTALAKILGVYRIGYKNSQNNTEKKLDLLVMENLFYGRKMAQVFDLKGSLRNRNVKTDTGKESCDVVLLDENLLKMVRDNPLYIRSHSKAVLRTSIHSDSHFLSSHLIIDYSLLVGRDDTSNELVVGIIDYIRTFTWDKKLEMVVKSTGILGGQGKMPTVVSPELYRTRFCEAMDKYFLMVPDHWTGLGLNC

`CN1CCCC(Oc2nc(N3CCOCC3)nc3c2OCc2cc(-c4ccccc4)nn2-3)C1` (stereo not drawn) [Compound 35, 4-((1-methylpiperidin-3-yl)oxy)-2-morpholino-8-phenyl-6H-pyrazolo[1,5-d]pyrimido[5,4-b][1,4]oxazine] and `COc1c(-c2cccc(-n3cccn3)c2)nc(N2CCN(C)C(=O)C2)nc1N1CCOCC1` [Compound 37, 4-[5-methoxy-4-morpholino-6-(3-pyrazol-1-ylphenyl)pyrimidin-2-yl]-1-methyl-piperazin-2-one] fall in the same range of IC50: 1 to 10 µM for the first, 1 to 10 µM for the second.

Compared with `COc1c(Nc2ccncc2)nc(N2CCOC[C@H]2CO)nc1-c1cccc(-c2ccn(C)n2)c1` [Compound 43], `COc1c(Nc2cccnc2)nc(N2CCOCC2)nc1-c1cccc(-c2ccn(C)n2)c1` [Compound 20, 5-methoxy-6-(3-(1-methyl-1H-pyrazol-3-yl)phenyl)-2-morpholino-N-(pyridin-3-yl)pyrimidin-4-amine] is lower in IC50: 1 to 10 µM for the first, 0.1 to 1 µM for the second.

First: Cn1ccc(-c2cccc(-c3nc(N4CCOCC4)nc(Nc4cc[n+](C)cc4)c3-c3ncco3)c2)n1 [Compound 73]
Second: Cn1ccc(-c2cccc(-c3nc(N4CCOCC4)nc(Nc4ccncc4)c3C(=O)N3CCC3)c2)n1 [Compound 68]
The IC50 of the first is higher: 1 to 10 µM for the first, 0.01 to 0.1 µM for the second.

`COc1c(Nc2cccnc2)nc(N2CCOCC2)nc1-c1cccc(N2CCN(C)C(=O)C2)c1` [Compound 27, 4-(3-(5-methoxy-2-morpholino-6-(pyridin-3-ylamino)pyrimidin-4-yl)phenyl)-1-methylpiperazin-2-one] and `COc1c(Nc2cccnc2)nc(N2CCOCC2)nc1-c1cccc(N2CCCC2=O)c1` [Compound 29, 1-(3-(5-methoxy-2-morpholino-6-(pyridin-3-ylamino)pyrimidin-4-yl)phenyl)pyrrolidin-2-one] fall in the same range of IC50: 1 to 10 µM for the first, 1 to 10 µM for the second.

`COc1c(Nc2cccnc2)nc(N2CCOCC2)nc1-c1cccc(C(=O)N(C)C)c1` [Compound 24] and `COc1c(Nc2cccnc2)nc(N2CCOCC2)nc1-c1cccc(-c2cccnn2)c1` [Compound 21] fall in the same range of IC50: 1 to 10 µM for the first, 1 to 10 µM for the second.

`COc1c(Nc2ccncc2)nc(N2CCOCC2)nc1-c1ccnc(-c2ccn(C)n2)n1` [Compound 56, 5-methoxy-2′-(I-methyl-1H-pyrazol-3-yl)-2-morpholino-N-(pyridin-4-yl)-4,4′-bipyrimidin-4-amine] and `COc1ccc(-c2nc(N3CCOCC3)nc(Nc3ccncc3)c2OC)nc1OC` [Compound 51, 6-(5,6-dimethoxypyridin-2-yl)-5-methoxy-2-morpholino-N-(pyridin-4-yl)pyrimidin-4-amine] fall in the same range of IC50: 0.1 to 1 µM for the first, 0.1 to 1 µM for the second.

`CN(C)C(=O)c1c(Nc2ccncc2)nc(N2CCOCC2)nc1-c1cccc(C#N)c1` [Compound 67] and `CN(C)C(=O)c1c(Nc2cccnc2)nc(N2CCOCC2)nc1-c1cccc(-n2cccn2)c1` [Compound 69] fall in the same range of IC50: 1 to 10 µM for the first, 1 to 10 µM for the second.

Compared with `COc1c(-c2cccc(-c3ccn(C)n3)c2)nc(N2CCOCC2)nc1-c1cnn(C)c1` [Compound 52, 4-(5-methoxy-4-(3-(1-methyl-1H-pyrazol-3-yl)phenyl)-6-(1-methyl-1H-pyrazol-4-yl)pyrimidin-2-yl)morpholine], `COc1c(-c2cccc(-c3ccn(C)n3)c2)nc(N2CCOCC2)nc1-c1ccc2ncccc2c1` [Compound 58, 4-(5-methoxy-4-(3-(1-methyl-1H-pyrazol-3-yl)phenyl)-6-(quinolin-6-yl)pyrimidin-2-yl)morpholine] is lower in IC50: 1 to 10 µM for the first, 0.1 to 1 µM for the second.

First: O=c1[nH]c2ccc(-n3cccn3)cc2c2nc(N3CCOCC3)nc(Nc3ccncc3)c12 [Compound 64, 2-morpholino-9-pyrazol-1-yl-4-(4-pyridylamino)-6H-pyrimido[5,4-c]quinolin-5-one]
Second: COc1c(Nc2cccnc2)nc(-c2ccncc2)nc1-c1cccc(-c2ccn(C)n2)c1 [Compound 34, 5-methoxy-6-(3-(1-methyl-H-pyrazol-3-yl)phenyl)-N-(pyridin-3-yl)-2-(pyridin-4-yl)pyrimidin-4-amine]
The IC50 of the first is higher: 1 to 10 µM for the first, 0.01 to 0.1 µM for the second. The second is the more potent here.
